In general, MIC refers to the lowest concentration that inhibits growth of the organism. Low readings indicate greater potency, high ones weaker potency.

The values below come from patent US20240050950A1, “GRADIENT-BASED MICROFLUIDIC CIRCUIT, DEVICE, AND METHOD FOR PERFORMING AN ASSAY” (priority 2020, published 2024).

Data set [1] relates to E. coli, S. aureus, S. uberis, and K. pneumoniae. The data set is described as follows: MVM2 antimicrobial R/S profile, bovine mastitis clinical isolates. As to conditions: MVM2 platform, FIG. 32. In kind it is cell-based. The text has this:
Bovine with mastitis disease was also used to test the MVM^2 platform for deciphering their antimicrobial resistant/susceptibility profile. These antibiotics were chosen to investigate the most common and important antibiotics' mechanisms of action, including the disruption of bacterial cell wall and membrane synthesis, binding to RNA/DNA and interrupting nucleic acid replication, and inhibition of protein synthesis by binding to ribosome. FIG. 32 contains the following information: (i) the type of bacteria and tested antibiotic can be found at the left and right sides, respectively; (ii) each row includes 37 squares, as labeled at the top and have been categorized in 4 different categories—first square representing the microchamber as negative control (labeled with “N”), and every next twelve squares as respectively representing low, medium, and high positive ranges of antibiotic concentrations; (iii) the low, medium, and high ranges are included the concentration ranges of 0.1-1, 1-10, and 10-100 μg/mL; (iv) there are three types of squares: dark red, dark pink or light pink. If bacteria is susceptible to a specific antibiotic (e.g., E. coli/cefuroxime pair, see FIG. 32), below MIC (shown by dark pink color), bacteria can survive and grow causing more resazurin reduction (shown by dark red). At concentrations greater than the MIC, the bacterial growth stopped as shown by light pink color. The dark pink squares also show the microchambers which antimicrobial susceptibility was monitored at different trials. […].

Data set [2] has as its system E. coli 541-15. The data set is described as follows: Gold standard broth microdilution test (OD600 growth curves). It counts as cell-based. Here is the method: Bacteria culture medium, strains, growth, and broth microdilution test. Non-selective Mueller-Hinton (“MET”) culture medium was used for all bacterial culture. In detail, a colony of bacteria pre-cultured on an LB agar plate (Corning, NY) was taken from a freshly streaked plate and suspended into 3 mL of MEI broth, and cultured at 37° C. overnight (˜12 h). The concentration of bacterial suspension was adjusted using a UV-Vis spectrophotometer (NanoDrop, Thermo-Fisher; Wilmington, DE). To do this, the overnight culture medium was diluted by 10-fold serial dilutions in non-selective MEI culture medium to find the appropriate final concentration (1×10^6 CFU/mL) for the antimicrobial susceptibility testing assay.
The gold standard broth microdilution test was performed by preparing the antibiotic solutions at their final concentrations from a stock solution of each examined antibiotic. A fresh 200 μL volume of each antibiotic solution (prepared in MEI culture medium) was pipetted into each microwell of a 96 MicroWell plate. […] Standardized growth curve analysis was performed using a Bioscreen C automated plate reader (Growth Curves USA, NJ) by measuring OD600. […]
For orientation: Dilution methods test growth across graded concentrations, often in twofold steps.

Data set [3] relates to E. coli 541-15. In kind it is cell-based.
Procedure: To perform a small-molecule-based biological assay in the MVM^2 platform, four main steps to load the reagents are followed. Step-i involves loading a suspension of the biological species (often with a fluorescent chemical indicator) into the MVM^2 platform so that it is uniformly distributed throughout (see FIG. 6C(i) and FIGS. 11A-D for more details; this step mainly takes ˜3-5 min). In step-ii, small-molecule solutions at C0, 0.1 C0, and 0.01 C0 concentrations are loaded into the high, medium, and low positive main-channels, respectively, which diffuse into the corresponding microchambers through the connected side-channels (see FIG. 6C(ii) and FIGS. 12A-D for more details; this step mainly takes as equal as the small-molecule loading time).
Resazurin (5 wt %) was also added to the bacterial suspension to allow monitoring of the bacterial cell metabolism through an irreversible resazurin-resorufin enzymatic reduction reaction (i.e., with increasing bacterial growth, the higher resazurin reduction results in greater fluorescent intensity).
To further confirm these findings based on the bacterial cell metabolism obtained from resazurin reduction, the red fluorescent intensities were correlated with the green fluorescence directly associated with the GFP-labeled bacterial growth in the corresponding microchambers (FIG. 9A and FIG. 9B). […] Moreover, the gold standard broth microdilution technique (measuring the bacterial cell density—OD600—vs. the incubation time) was used to validate the MVM^2 microfluidic device functionality (FIG. 9E).
Similarly, bacterial cell metabolism and growth using the resazurin reduction assay was probed and changes in the number of GFP-labeled bacteria during the assay was monitored, as shown in FIGS. 29A-B and FIGS. 30A-B, respectively.
Data set [4] has as its system E. coli LF82, E. faecalis 44, and K. pneumoniae 578. In words: MVM2 antimicrobial R/S profile, isolates from ileal mucosa of human patients with Crohn's disease. In kind it is cell-based. As to conditions: MVM2 platform, FIG. 9F.
For a further data set, the system named is E. coli LF82. The data set is described as follows: MVM2 antimicrobial R/S profile, Crohn's disease clinical isolate. In kind it is cell-based. As to conditions: MVM2 platform, 0.1-100 μg/mL, FIG. 9F.
In data set [5] the test system is wild-type S. cerevisiae strain (DBY12000). The data set is described as follows: Sugar test in MVM2 platform, 10 h yeast culture. It counts as cell-based, Saccharomyces cerevisiae. As to conditions: 0.007-7%. Here is the method:
Yeast culture medium, strains, and growth. Yeast cell growth and standard laboratory manipulations were performed as described (Guthrie and Fink, “Guide to Yeast Genetics and Molecular and Cellular Biology,” Methods in Enzymol. Part C 351 Gulf Professional Publishing (2002), which is hereby incorporated by reference in its entirety). All media used was either minimal medium (YNB; 0.67% yeast nitrogen base without amino acids plus 2% indicated carbon sources) or rich medium (YP; 2% bacto peptone, 1% yeast extract, 2% indicated carbon sources). Additionally, for fluorescence microscopy, low-fluorescence medium was used (standard minimal medium with 2% glucose, except YNB is prepared without riboflavin or folic acid to reduce background fluorescence) (Sheff and Thorn, “Optimized Cassettes for Fluorescent Protein Tagging in Saccharomyces cerevisiae,” Yeast 21:661-670 (2004), which is hereby incorporated by reference in its entirety). The yeast strains used in this study were DBY12000 and DBY12549. DBY12000 is a wild-type yeast strain (i.e., WT) with a genotype of MATa prototrophic HAP1^+ derivative of FY4. […]
Wild-type vs. Glucose (outcome: not sensitive): In FIGS. 37A-D and FIG. 38, the WT yeast strain exposed with glucose and fructose, respectively. The yeast growth was monitored for any “yeast/sugar” pair within 10 h culture at two time points (t=0 and 10 h). […]

The subject of another data set is WT strain. As to conditions: reported elsewhere; cited from earlier work.
In data set [6] the test system is yrKHK S. cerevisiae yeast strain (DBY12549). It counts as cell-based, Saccharomyces cerevisiae. As to conditions: MVM2 platform. Here is the method:
Yeast culture medium, strains, and growth. Yeast cell growth and standard laboratory manipulations were performed as described (Guthrie and Fink, “Guide to Yeast Genetics and Molecular and Cellular Biology,” Methods in Enzymol. Part C 351 Gulf Professional Publishing (2002), which is hereby incorporated by reference in its entirety). All media used was either minimal medium (YNB; 0.67% yeast nitrogen base without amino acids plus 2% indicated carbon sources) or rich medium (YP; 2% bacto peptone, 1% yeast extract, 2% indicated carbon sources). Additionally, for fluorescence microscopy, low-fluorescence medium was used (standard minimal medium with 2% glucose, except YNB is prepared without riboflavin or folic acid to reduce background fluorescence) (Sheff and Thorn, “Optimized Cassettes for Fluorescent Protein Tagging in Saccharomyces cerevisiae,” Yeast 21:661-670 (2004), which is hereby incorporated by reference in its entirety). The yeast strains used in this study were DBY12000 and DBY12549. DBY12000 is a wild-type yeast strain (i.e., WT) with a genotype of MATa prototrophic HAP1^+ derivative of FY4. DBY12549 or yrKHK is the mutant of the wild-type yeast strain, which is sensitive to fructose and has a genotype of MATa HAP1^+ can1Δ::TDH3pr-yrKHK.
Then, as an example, the platform was used to study recessive human metabolic diseases, specifically measuring sugar-phosphate toxicity. […]. The data obtained using the MVM^2 platform precisely pinpointed the binary ‘Yes/No’ sensitivity response of the yrKHK strain to fructose (Yes) and glucose (No), as shown in FIGS. 35A-C and FIGS. 36A-C, respectively.
In this case, the functionality and validity of the MVM^2 platform was used to test for these known “eukaryote cells/sugars” pairs. Consequently, sugars (fructose and glucose) were chosen as the small molecules to show the feasibility of testing small molecules on eukaryotic cells in the MVM^2 platform. A wild-type S. cerevisiae, DBY12000, yeast strain (namely, WT) and its genetically modified DBY12549 mutant (called yrKHK) were chosen.. […]

The conditions of data set [7]: cited from earlier work.
The subject of the next data set is yrKHK strain. As to conditions: reported elsewhere; cited from earlier work.
Another data set concerns E. coli. The data set is described as follows: MVM2 antimicrobial R/S profile, bovine mastitis E. coli isolate. In kind it is cell-based. As to conditions: MVM2 platform, 0.1-100 μg/mL, FIG. 32. The text has this: Bovine with mastitis disease was also used to test the MVM^2 platform for deciphering their antimicrobial resistant/susceptibility profile. These antibiotics were chosen to investigate the most common and important antibiotics' mechanisms of action, including the disruption of bacterial cell wall and membrane synthesis, binding to RNA/DNA and interrupting nucleic acid replication, and inhibition of protein synthesis by binding to ribosome. FIG. 32 contains the following information: (i) the type of bacteria and tested antibiotic can be found at the left and right sides, respectively; (ii) each row includes 37 squares, as labeled at the top and have been categorized in 4 different categories—first square representing the microchamber as negative control (labeled with “N”), and every next twelve squares as respectively representing low, medium, and high positive ranges of antibiotic concentrations; (iii) the low, medium, and high ranges are included the concentration ranges of 0.1-1, 1-10, and 10-100 μg/mL; (iv) there are three types of squares: dark red, dark pink or light pink. […] The dark pink squares also show the microchambers which antimicrobial susceptibility was monitored at different trials. […]

Where [8] appears, read: Table 1, antimicrobial agents/drugs.

Like-named read-outs stand apart in the source and are kept apart here.

Regarding Gentamicin, the “effectiveness among tested antibiotics” value in data set [1] and in data set [4] was “most effective” each time. In addition, the MIC was 3 ± 2 µg/mL in the data set on E. coli 541-15 [2] (n=5) and 2.82 ± 0.68 µg/mL in the data set on E. coli 541-15 [3] (MVM2 platform, 4 h at 37° C., n=5). Moreover, the susceptibility/resistance outcome with E. coli 541-15 [3] and in the data set with E. coli LF82 was “susceptible” each time.
`O=C(CO)[C@@H](O)[C@H](O)[C@H](O)CO` [D-fructose]: the “outcome (sensitivity)” value in [5] is given as “not sensitive”. The results for the sensitivity/resistance result in the data set with WT strain and in the data set on yrKHK strain were “resistant” and “sensitive”, respectively. Also, the “binary Yes/No sensitivity response” value in data set [6] (0.007-7 wt %) is listed as “Yes”. The same molecule gave a critical sensitivity concentration in data set [6] (10 h) of 1.13 wt %. For the same molecule, the “concentration range within which yeast growth is stopped” value in data set [6] (microchambers R8-R12, 10 h) is 0.7-1.113 wt %. In data set [7] (Table 3, antifungal drugs and other molecules), the Molar volume is listed as 113.3 cm^3.
Turning to `CO/N=C(\C(=O)N[C@@H]1C(=O)N2C(C(=O)O)=C(COC(N)=O)CS[C@H]12)c1ccco1` [cefuroxime], the susceptibility/resistance outcome with E. coli is “susceptible”. For the same molecule, the “effectiveness among tested antibiotics” value in data set [1] was “most effective”.
Regarding `CCC[C@@H]1C[C@@H](C(=O)N[C@@H]([C@H]2O[C@H](SC)[C@H](O)[C@@H](O)[C@H]2O)[C@@H](C)O)N(C)C1` [Lincomycin], the susceptibility/resistance outcome in the data set with E. coli is given as “resistance”. Moreover, in data set [1], the “effectiveness among tested antibiotics” value is “not effective”. The Molar volume in data set [7] (setting [8]) was 313.2 ± 5.0 cm^3.
Regarding `CCn1cc(C(=O)O)c(=O)c2ccc(C)nc21` [Nalidixic acid], the “effectiveness among tested antibiotics” value in data set [1] was “most effective”.
For the molecule `CC1(C)S[C@@H]2[C@H](NC(=O)[C@H](N)c3ccccc3)C(=O)N2[C@H]1C(=O)O` [D-(−)-α-Aminobenzylpenicillin], the susceptibility/resistance outcome with E. coli 541-15 [2] was “resistance”; in the data set with E. coli 541-15 [3] (MVM2 platform, 0.1-100 μg/mL, 4 h) it was “resistance”; with E. coli LF82 it was “resistance”. The Molar volume in data set [7] (setting [8]) was 239.3 ± 5.0 cm^3.

B1: Pegfilgrastim (protein, UniProt P09919 31-207, looked up)
Granulocyte …: TPLGPASSLPQSFLLKCLEQVRKIQGDGAALQEKLVSECATYKLCHPEELVLLGHSLGIPWAPLSSCPSQALQLAGCLSQLHSGLFLYQGLLQALEGISPELGPTLDTLQLDVADFATTIWQQMEELGMAPALQPTQGAMPAFASAFQRRAGGVLVASHLQSFLEVSYRVLRHLAQP
modifications: N-terminal methionine; PEG
B1: the Molar volume in data set [7] (Table 2, anticancer drugs) is given as 252.4 ± 3.0 cm^3.
